In US11230526B1, “Cylcoalkenyl derivatives useful as agonists of the GPR120 and/or GPR40 receptors” (Janssen Pharmaceutica NV, priority 2018, dated 2022) one finds EC50 data, which are given here for 31 compounds.

One assay addresses T1, Human GPR120 short form (Homo sapiens, UniProt Q5NUL3).
T1 construct: expressed in transfected cells
T1 sequence (Q5NUL3 1-361): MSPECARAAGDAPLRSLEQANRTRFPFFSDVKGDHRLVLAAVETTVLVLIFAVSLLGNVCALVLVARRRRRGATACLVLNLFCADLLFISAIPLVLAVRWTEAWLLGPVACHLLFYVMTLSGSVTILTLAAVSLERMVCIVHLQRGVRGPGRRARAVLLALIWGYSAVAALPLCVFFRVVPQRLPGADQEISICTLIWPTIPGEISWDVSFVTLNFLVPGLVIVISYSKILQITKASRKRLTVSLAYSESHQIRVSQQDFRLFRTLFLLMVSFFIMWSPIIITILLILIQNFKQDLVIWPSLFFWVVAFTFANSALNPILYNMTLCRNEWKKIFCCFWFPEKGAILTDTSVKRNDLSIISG
Put plainly: Human GPR120 calcium flux assay, Procedure Calcium B (4200 cells/well). It is filed as cell-based. In a few lines:
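HEK293 cells stably expressing human GPR120 (NM_001195755.1), 4200 cells/well, starved 1 h and loaded with Fluo-4 NW plus probenecid. Ligand-evoked calcium flux read on FLIPR for 300 s after a 10 s baseline. RFU = Fmax−Fmin; EC50 from four-parameter concentration-response fit.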

The target in a further assay is T2, human GPR40 (Homo sapiens, UniProt O14842).
T2 construct: expressed in transfected cells
Put plainly: GPR40 calcium flux assay, human GPR40. It is filed as cell-based. As to conditions: HEK293 cells stably expressing GPR40; table does not say human or rat. In a few lines:
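Cells preincubated 1 h at 37° C. in HBSS, 20 mM HEPES, 0.1% BSA, then Fluo 8 calcium dye 30 min at 37° C. and 15 min at room temperature.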
A general note: Calcium flux is commonly read through the fluorescence of an indicator in the cells.

Each structure is given as a SMILES string.

T2 sequence (O14842 whole entry): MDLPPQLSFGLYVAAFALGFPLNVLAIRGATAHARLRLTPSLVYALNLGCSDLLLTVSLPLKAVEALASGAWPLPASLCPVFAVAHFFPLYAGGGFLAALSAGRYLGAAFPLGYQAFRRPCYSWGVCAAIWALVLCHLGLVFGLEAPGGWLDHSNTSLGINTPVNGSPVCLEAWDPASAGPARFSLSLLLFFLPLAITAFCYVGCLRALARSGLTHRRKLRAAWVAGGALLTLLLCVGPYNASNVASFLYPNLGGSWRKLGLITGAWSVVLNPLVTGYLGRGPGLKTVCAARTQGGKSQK

One may read the EC50 as the midpoint of the concentration-response curve. For `O=C(O)CCc1ccc(OCC2=C(C3CCC(F)(F)CC3)CCC2)cc1C(F)(F)F` [Compound 416, 3-[4-[[2-(4,4-difluorocyclohexyl)cyclopenten-1-yl]methoxy]-2-(trifluoromethyl)phenyl]Propanoic Acid], the EC50 on Human GPR120 short form is more than 5000 nM; at human GPR40, 94 nM.

For the compound `Cc1cccc(C2=C(COc3ccc(CCC(=O)O)c(C(F)(F)F)c3)CCC2)c1` [Compound 312, 3-[4-[[2-(m-tolyl)cyclopenten-1-yl]methoxy]-2-(trifluoromethyl)phenyl]Propanoic Acid], the EC50 worked out at 612 nM on Human GPR120 short form and 402 nM at human GPR40.

Regarding `C#Cc1cc(OCC2=C(C3CCCC3)CCC2)ccc1CCC(=O)O` [Compound 454, 3-[4-[(2-cyclopentylcyclopenten-1-yl)methoxy]-2-ethynyl-phenyl]Propanoic Acid], the EC50 at Human GPR120 short form stood at 2250 nM; on human GPR40, 513 nM.

`O=C(O)CCc1ccc(OCC2=C(c3ccc(Cl)cc3)CC(F)(F)C2)cc1Cl` [Compound 251, 3-[2-chloro-4-[[2-(4-chlorophenyl)-4,4-difluoro-cyclopenten-1-yl]methoxy]phenyl]Propanoic Acid]: the values for the EC50 on Human GPR120 short form and at human GPR40 were 195 nM and 579 nM, respectively.

On to `CCOc1ccc(C2=C(COc3ccc(CCC(=O)O)c(C)c3C)CCC2)cn1` [Compound 219, 3-[4-[[2-(6-ethoxy-3-pyridyl)cyclopenten-1-yl]methoxy]-2,3-dimethyl-phenyl]Propanoic Acid], for which the results for the EC50 at Human GPR120 short form and on human GPR40 were 1120 nM and more than 5000 nM, respectively.

For the compound `O=C(O)CCc1ccc(OCC2=C(c3ccc(Cl)c(F)c3)CCC2)cc1C(F)(F)F` [Compound 284, 3-[4-[[2-(4-chloro-3-fluoro-phenyl)cyclopenten-1-yl]methoxy]-2-(trifluoromethyl)phenyl]Propanoic Acid], the EC50 on Human GPR120 short form is 442 nM; at human GPR40 it was 101 nM.

For the compound `O=C(O)CCc1ccc(OCC2=C(c3ccccc3)CC(F)(F)C2)cc1C(F)(F)F` [Compound 241], the results for the EC50 at Human GPR120 short form and at human GPR40 were 173 nM and 222 nM, respectively.

As for `Cc1ccc(C2=C(COc3ccc(CCC(=O)O)c(C(F)(F)F)c3)CCC2)cc1-c1ccccc1` [Compound 292, 3-[4-[[2-(4-methyl-3-phenyl-phenyl)cyclopenten-1-yl]methoxy]-2-(trifluoromethyl)phenyl]Propanoic Acid], the EC50 on Human GPR120 short form is more than 5000 nM; at human GPR40 it was 1720 nM.

On to `O=C(O)CCc1ccc(OCC2=C(c3ccc(F)c(F)c3)CCC2)cc1` [Compound 103], for which the EC50 on Human GPR120 short form and at human GPR40 was more than 5000 nM each time.

Take `O=C(O)CCc1ccc(OCC2=C(Cc3ccccc3)CC(F)(F)C2)cc1Cl` [Compound 364, 3-[4-[(2-benzyl-4,4-difluoro-cyclopenten-1-yl)methoxy]-2-chloro-phenyl]Propanoic Acid]: the EC50 at Human GPR120 short form was 891 nM; on human GPR40, 49 nM.

Regarding `CC(C)C1=C(COc2ccc(CCC(=O)O)c(C(F)(F)F)c2)CCCC1` [Compound 586, 3-[4-[(2-isopropylcyclohexen-1-yl)methoxy]-2-(trifluoromethyl)phenyl]Propanoic Acid], the EC50 on Human GPR120 short form was found to be 908 nM; on human GPR40, 52 nM.

As to `Cc1ccc(CC2=C(COc3ccc(CCC(=O)O)cc3)CCC2)cc1` [Compound 346, 3-[4-[[2-(p-tolylmethyl)cyclopenten-1-yl]methoxy]phenyl]Propanoic Acid], the EC50 on Human GPR120 short form stood at 1300 nM; on human GPR40 it was 228 nM.

Consider `O=C(O)CCc1ccc(OCC2=C(Cc3ccc(F)cc3)CCC2)cc1Cl` [Compound 349, 3-[2-chloro-4-[[2-[(4-fluorophenyl)methyl]cyclopenten-1-yl]methoxy]phenyl]Propanoic Acid], for which the EC50 on Human GPR120 short form came out at 1900 nM; at human GPR40 it was 60 nM.

Regarding `Cc1ccc(C2=C(COc3ccc(CCC(=O)O)c(Cl)c3)CCC2)cc1F` [Compound 296, 3-[2-chloro-4-[[2-(3-fluoro-4-methyl-phenyl)cyclopenten-1-yl]methoxy]phenyl]Propanoic Acid], the EC50 at Human GPR120 short form stood at 157 nM; at human GPR40 it was 1070 nM.

On to `O=C(O)CCc1ccc(OCC2=C(c3cc(Cl)ccc3F)CCC2)cc1C(F)(F)F` [Compound 344, 3-[4-[[2-(5-chloro-2-fluoro-phenyl)cyclopenten-1-yl]methoxy]-2-(trifluoromethyl)phenyl]Propanoic Acid], for which the EC50 was 520 nM on Human GPR120 short form and 137 nM at human GPR40.

Turning to `O=C(O)CCc1ccc(OCC2=C(c3ccccc3)CCC2)cc1C(F)(F)F` [Compound 258, 3-[4-[(2-phenylcyclopenten-1-yl)methoxy]-2-(trifluoromethyl)phenyl]Propanoic Acid], the half-maximal effective concentration (EC50) on Human GPR120 short form stood at 614 nM; on human GPR40 it was 481 nM.

On to `CC(C)C1=C(COc2ccc(CCC(=O)O)c(C(F)(F)F)c2)CCC1` [Compound 377, 3-[4-[(2-isopropylcyclopenten-1-yl)methoxy]-2-(trifluoromethyl)phenyl]Propanoic Acid], for which the 50% effective concentration (EC50) at Human GPR120 short form amounted to 493 nM; at human GPR40, 42 nM.

For `COc1cc(C2=C(COc3ccc(CCC(=O)O)cc3)CCC2)ccc1C` [Compound 261], the results for the EC50 at Human GPR120 short form and on human GPR40 were 1540 nM and 1620 nM, respectively.

On to `CC(C)(C)CC1=C(COc2ccc(CCC(=O)O)c(C(F)(F)F)c2)CCC1` [Compound 387, 3-[4-[[2-(2,2-dimethylpropyl)cyclopenten-1-yl]methoxy]-2-(trifluoromethyl)phenyl]Propanoic Acid], for which the EC50 on Human GPR120 short form is more than 5000 nM; on human GPR40, 71 nM.

Regarding `COc1ccc(C2=C(COc3cc(C)c(CCC(=O)O)cc3F)CCC2)c(C)c1` [Compound 278, 3-[5-fluoro-4-[[2-(4-methoxy-2-methyl-phenyl)cyclopenten-1-yl]methoxy]-2-methyl-phenyl]Propanoic Acid], the EC50 at Human GPR120 short form was more than 5000 nM; on human GPR40 it was 302 nM.

Regarding `Cc1cc(OCC2=C(c3ccc(Br)cc3)CCC2)c(F)cc1CCC(=O)O` [Compound 299, 3-[4-[[2-(4-bromophenyl)cyclopenten-1-yl]methoxy]-5-fluoro-2-methyl-phenyl]Propanoic Acid], the EC50 on Human GPR120 short form came to 251 nM; at human GPR40 it was 661 nM.

On to `CSCCCCc1cc(CCC(=O)O)ccc1OCC1=C(c2ccc(Cl)cc2)CCC1` [Compound 198, 3-[4-[[2-(4-chlorophenyl)cyclopenten-1-yl]methoxy]-3-(4-methylsulfanylbutyl)phenyl]Propanoic Acid], for which the EC50 on Human GPR120 short form came to 1290 nM; on human GPR40, 2140 nM.

Consider `O=C(O)CCc1ccc(OCC2=C(C3CCCC3)CCC(F)(F)CC2)cc1C(F)(F)F` [Compound 617, 3-[4-[(2-cyclopentyl-5,5-difluoro-cyclohepten-1-yl)methoxy]-2-(trifluoromethyl)phenyl]Propanoic Acid], for which the EC50 is 215 nM on Human GPR120 short form and 103 nM on human GPR40.

As to `CC(C)C1=C(COc2ccc(CCC(=O)O)cc2)CCCC1` [Compound 585, 3-[4-[(2-isopropylcyclohexen-1-yl)methoxy]phenyl]Propanoic Acid], the EC50 is 1650 nM on Human GPR120 short form and 2420 nM at human GPR40.

For the compound `Cc1c(CCC(=O)O)ccc(OCC2=C(c3ccc(Cl)cc3)CCC2=O)c1C` [Compound 145, 3-[4-[[2-(4-chlorophenyl)-5-oxo-cyclopenten-1-yl]methoxy]-2,3-dimethyl-phenyl]Propanoic Acid], the EC50 at Human GPR120 short form was 2000 nM; on human GPR40, more than 5000 nM.

For the compound `CC1CCC(COc2ccc(CCC(=O)O)cc2)=C1c1ccccc1` (centres unmarked) [Compound 321, 3-[4-[(3-methyl-2-phenyl-cyclopenten-1-yl)methoxy]phenyl]Propanoic Acid], the concentration for a half-maximal effect (EC50) on Human GPR120 short form amounted to 733 nM; at human GPR40, 2640 nM.

On to `Cc1cc(OCC2=C(c3ccc(Cl)cc3)C(C)CC2)c(F)cc1CCC(=O)O` (centres unmarked) [Compound 317, 3-[4-[[2-(4-chlorophenyl)-3-methyl-cyclopenten-1-yl]methoxy]-5-fluoro-2-methyl-phenyl]Propanoic Acid], for which the values for the EC50 on Human GPR120 short form and on human GPR40 were 866 nM and 746 nM, respectively.

For the compound `Cc1cc(OCC2=C(c3ccccc3)CCC2C)c(F)cc1CCC(=O)O` (centres unmarked) [Compound 338, 3-[5-fluoro-2-methyl-4-[(5-methyl-2-phenyl-cyclopenten-1-yl)methoxy]phenyl]Propanoic Acid], the figures for the EC50 at Human GPR120 short form and on human GPR40 were 725 nM and 2860 nM, respectively.

Consider `CC(C)c1cc(OCC2=C(C3CCCC3)CCC2)ccc1CCC(=O)O` [Compound 410, 3-[4-[(2-cyclopentylcyclopenten-1-yl)methoxy]-2-isopropyl-phenyl]Propanoic Acid], for which the values for the EC50 on Human GPR120 short form and on human GPR40 were 996 nM and 128 nM, respectively.

On to `Cc1cc(OCC2=C(c3ccccc3)C(C)CC2)c(F)cc1CCC(=O)O` (centres unmarked) [Compound 323, 3-[5-fluoro-2-methyl-4-[(3-methyl-2-phenyl-cyclopenten-1-yl)methoxy]phenyl]Propanoic Acid], for which the values for the EC50 on Human GPR120 short form and on human GPR40 were 1070 nM and 2230 nM, respectively.

In the case of `O=C(O)CCc1ccc(OCC2=C(C3CCC3)CCCC2)cc1Cl` [Compound 600, 3-[2-chloro-4-[(2-cyclobutylcyclohexen-1-yl)methoxy]phenyl]Propanoic Acid], the EC50 is 1200 nM on Human GPR120 short form and 24 nM at human GPR40.
